Measured values: ChEMBL document CHEMBL3259572, “Euodenine A: a small-molecule agonist of human TLR4” (J Med Chem, 2014)
Calls of active or inactive are those of the source. The rule behind the calls is not given here.

Key:
Format in all cases: cell-based
Toll-like receptor 4 [1] = biological target: T1, Toll-like receptor 4 (Homo sapiens, UniProt O00206); experiment: Intrinsic activity at human recombinant TLR4 expressed in HEK293 cells by SEAP reporter assay relative to LPS
Toll-like receptor 4 [2] = biological target: T1, Toll-like receptor 4; experiment: Agonist activity at human recombinant TLR4 expressed in HEK293 cells by SEAP reporter assay
PBMC = experiment: Cytotoxicity against PHA-stimulated human PBMC assessed as reduction in cell viability at 20 uM by WST-1 cell proliferation assay
[3] = Cytotoxicity against PHA-stimulated human PBMC assessed as reduction in cell viability at 50 uM by WST-1 cell proliferation assay
Toll-like receptor 4 [4] = biological target: T1, Toll-like receptor 4; experiment: Agonist activity at human recombinant TLR4 expressed in HEK293 cells at 300 uM by SEAP reporter assay
Toll-like receptor 4 [5] = biological target: T1, Toll-like receptor 4; experiment: Agonist activity at human recombinant TLR4 expressed in HEK293 cells at 30 uM by SEAP reporter assay
Toll-like receptor 4 [6] = biological target: T1, Toll-like receptor 4; experiment: Agonist activity at human recombinant TLR4 expressed in HEK293 cells at 60 uM by SEAP reporter assay
Toll-like receptor 4 [7] = biological target: T1, Toll-like receptor 4; experiment: Agonist activity at human recombinant TLR4 expressed in HEK293 cells at 71.5 uM by SEAP reporter assay
Toll-like receptor 4 [8] = biological target: T1, Toll-like receptor 4; experiment: Agonist activity at human recombinant TLR4 expressed in HEK293 cells at 25 uM by SEAP reporter assay
Toll-like receptor 4 [9] = biological target: T1, Toll-like receptor 4; experiment: Agonist activity at human recombinant TLR4 expressed in HEK293 cells at 333 uM by SEAP reporter assay

T1 sequence (O00206 whole entry): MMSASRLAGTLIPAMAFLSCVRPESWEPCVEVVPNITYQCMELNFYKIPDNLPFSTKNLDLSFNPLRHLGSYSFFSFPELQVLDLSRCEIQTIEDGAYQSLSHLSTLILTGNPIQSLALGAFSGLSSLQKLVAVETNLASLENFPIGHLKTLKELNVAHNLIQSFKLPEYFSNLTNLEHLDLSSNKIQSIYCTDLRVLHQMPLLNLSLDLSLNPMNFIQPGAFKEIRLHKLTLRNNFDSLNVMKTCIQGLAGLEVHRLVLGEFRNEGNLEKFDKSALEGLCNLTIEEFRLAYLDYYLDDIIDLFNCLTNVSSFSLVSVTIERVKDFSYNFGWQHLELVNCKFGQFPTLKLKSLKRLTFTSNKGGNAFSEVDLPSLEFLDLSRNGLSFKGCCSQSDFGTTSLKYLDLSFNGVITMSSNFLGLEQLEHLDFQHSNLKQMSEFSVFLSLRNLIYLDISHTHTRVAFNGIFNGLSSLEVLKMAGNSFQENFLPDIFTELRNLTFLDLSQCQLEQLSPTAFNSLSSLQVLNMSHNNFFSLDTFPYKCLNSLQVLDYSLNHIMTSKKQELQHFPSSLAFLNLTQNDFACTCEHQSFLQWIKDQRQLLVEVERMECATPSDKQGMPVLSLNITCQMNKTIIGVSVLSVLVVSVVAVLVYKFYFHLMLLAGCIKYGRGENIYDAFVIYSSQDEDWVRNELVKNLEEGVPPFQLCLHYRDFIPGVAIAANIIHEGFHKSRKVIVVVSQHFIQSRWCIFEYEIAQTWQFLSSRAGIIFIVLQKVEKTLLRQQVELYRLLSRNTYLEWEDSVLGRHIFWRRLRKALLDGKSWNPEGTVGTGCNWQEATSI

| Structure (SMILES) | Intrinsic activity (Toll-like receptor 4 [1]) | EC50 (Toll-like receptor 4 [2]) [µM] | further results |
| --- | --- | --- | --- |
| COc1cc([C@H]2[C@H]3c4c(c5ccccc5[nH]c4=O)OC(C)(C)[C@H]3[C@@H]2C2CCCC2)cc(OC)c1OC | 0.63 | 0.63 |  |
| COc1ccc([C@@H]2[C@@H](C(=O)C3CC3)[C@H]3[C@@H]2c2c(c4ccccc4[nH]c2=O)OC3(C)C)cc1OC | 0.62 | 7.9 |  |
| COC[C@@H]1[C@@H](c2ccc(OC)c(OC)c2)[C@H]2c3c(c4ccccc4n(C)c3=O)OC(C)(C)[C@@H]12 |  |  | Activity (PBMC): Non-toxic; inhibition at 50 µM [3]: 30% |
| CCCC[C@@H]1[C@@H](c2ccc(OC)c(OC)c2)[C@H]2c3c(c4ccccc4[nH]c3=O)OC(C)(C)[C@@H]12 | 1.01 | 1.2 |  |
| COc1ccc([C@@H]2[C@@H](C)[C@H]3[C@@H]2c2c(c4ccccc4[nH]c2=O)OC3(C)C)c(Cl)c1OC | 0.44 | 3.1 |  |
| COc1ccc([C@H]2[C@H]3c4c(c5ccccc5[nH]c4=O)OC(C)(C)[C@H]3[C@@H]2C2CC2)cc1OCCCN1CCOCC1 | 0.19 | 3.9 |  |
| CCOc1ccc([C@H]2[C@H]3c4c(c5ccccc5[nH]c4=O)OC(C)(C)[C@H]3[C@@H]2C(C)C)cc1OC | 0.19 | 3.9 |  |
| CCC[C@]1(c2ccc(OC)c(OC)c2)O[C@H]2c3c(c4ccccc4[nH]c3=O)OC(C)(C)[C@H]2O1 | 0.2 | 15.8 |  |
| COc1cc(C2[C@@H](COC(C)C)C3[C@@H]2c2c(c4ccccc4[nH]c2=O)OC3(C)C)cc(OC)c1OC (single isomer, unassigned) |  |  | Activity (Toll-like receptor 4 [4]): inactive |
| CC[C@@H]1[C@@H](c2ccc(OC)c(F)c2)[C@H]2c3c(c4ccccc4n(C)c3=O)OC(C)(C)[C@@H]12 | 0.36 | 3.1 |  |
| COc1cc([C@H]2[C@H]3c4c(c5cc(C)ccc5n(C)c4=O)OC(C)(C)[C@H]3[C@@H]2C(C)C)cc(OC)c1OC | 0.41 | 7.9 |  |
| COc1cc([C@@H]2C[C@H]3[C@@H]2c2c(c4ccccc4[nH]c2=O)OC3(C)C)cc(OC)c1OC |  |  | Activity (Toll-like receptor 4 [5]): inactive |
| COc1ccc([C@H]2[C@H]3c4c(c5ccccc5[nH]c4=O)OC(C)(C)[C@H]3[C@@H]2C(C)C)cc1OC(=O)CCC(=O)O | 0.29 | 6.3 |  |
| CC[C@@H]1[C@@H](c2cc(OC)c(OC)c(OC)c2)[C@H]2c3c(c4ccccc4[nH]c3=O)OC(C)(C)[C@@H]12 | 1.05 | 0.79 |  |
| COc1ccc([C@@H]2[C@@H](C(C)=O)[C@H]3[C@@H]2c2c(c4ccccc4[nH]c2=O)OC3(C)C)cc1OC | 0.3 | 10 |  |
| COc1ccc([C@@H]2[C@@H](C)[C@H]3[C@@H]2c2c(c4ccccc4[nH]c2=O)OC3(C)C)cc1 |  | > 10 |  |
| COc1cc([C@@H]2[C@@H](C)[C@H]3[C@@H]2c2c(c4ccccc4[nH]c2=O)OC3(C)C)ccc1OCc1ccccc1 |  |  | Activity (Toll-like receptor 4 [4]): inactive |
| CC[C@@H]1[C@@H](c2ccc(OC)c(OC)c2)[C@H]2c3c(c4cc(C)ccc4n(C)c3=O)OC(C)(C)[C@@H]12 | 0.29 | 3.1 |  |
| CC[C@@H]1[C@@H](c2ccc(OC)c(OC)c2)[C@H]2c3c(c4ccccc4n(C)c3=O)OC(C)(C)[C@@H]12 | 0.61 | 2 |  |
| COc1ccc([C@H]2[C@H]3c4c(c5ccccc5[nH]c4=O)OC(C)(C)[C@H]3[C@@H]2C2CCCC2)cc1OC | 0.9 | 0.39 |  |
| CCCC[C@@H]1[C@@H](c2cc(OC)c(OC)c(OC)c2)[C@H]2c3c(c4ccccc4[nH]c3=O)OC(C)(C)[C@@H]12 | 0.69 | 2 |  |
| CCC[C@]1(c2cc(OC)c(OC)c(OC)c2)O[C@H]2c3c(c4ccccc4[nH]c3=O)OC(C)(C)[C@H]2O1 |  |  | Activity (Toll-like receptor 4 [6]): inactive |
| CC[C@@H]1[C@@H](c2ccc(OC)c(OC)c2)[C@H]2c3c(c4ccccc4[nH]c3=O)OC(C)(C)[C@@H]12 | 1.01 | 1.2 |  |
| COc1cc([C@H]2[C@H]3c4c(c5ccccc5[nH]c4=O)OC(C)(C)[C@H]3[C@@H]2C(C)C)cc(OC)c1OC | 1.18 | 0.79 |  |
| COc1ccc2[nH]c(=O)c3c(c2c1)OC(C)(C)[C@@H]1[C@H]3[C@H](c2ccc(OC)c(OC)c2)[C@H]1C(C)C |  | > 10 |  |
| COc1cc(C2[C@@H](COC(C)=O)C3[C@@H]2c2c(c4ccccc4[nH]c2=O)OC3(C)C)cc(OC)c1OC (single isomer, unassigned) | 0.1 | 5 |  |

| Structure (SMILES) | Intrinsic activity (Toll-like receptor 4 [1]) | EC50 (Toll-like receptor 4 [2]) [µM] | further results |
| --- | --- | --- | --- |
| COc1cc(OC)cc([C@@H]2[C@@H](C)[C@H]3[C@@H]2c2c(c4ccccc4[nH]c2=O)OC3(C)C)c1 | 0.46 | 3.1 |  |
| COc1cc([C@@H]2[C@@H](C)[C@@H]3C(C)Oc4c(c(=O)[nH]c5ccccc45)[C@H]23)cc(OC)c1OC (single isomer, unassigned) |  | > 10 |  |
| COc1ccc([C@@H]2[C@@H](C)[C@H]3[C@@H]2c2c(c4ccccc4n(C)c2=O)OC3(C)C)cc1OC | 0.64 | 2.5 |  |
| CCC[C@]1(c2cc(OC)cc(OC)c2)O[C@H]2c3c(c4ccccc4[nH]c3=O)OC(C)(C)[C@H]2O1 | 0.7 | 3.1 |  |
| COc1ccc([C@@H]2[C@@H](C)[C@H]3[C@@H]2c2c(c4ccccc4[nH]c2=O)OC3(C)C)c(OC)c1OC |  | > 10 |  |
| COc1ccc([C@H]2[C@H]3c4c(c5ccccc5[nH]c4=O)OC(C)(C)[C@H]3[C@@H]2C(C)C)cc1OC(C)=O |  | > 10 |  |
| COc1ccc([C@H]2[C@H]3c4c(c5ccccc5[nH]c4=O)OC(C)(C)[C@H]3[C@@H]2C2CC2)cc1OC | 0.75 | 0.63 |  |
| COc1ccc([C@@H]2[C@@H](C)[C@H]3[C@@H]2c2c(c4ccccc4[nH]c2=O)OC3(C)C)cc1Br | 0.28 | 3.9 |  |
| C[C@@H]1[C@@H](c2ccccc2)[C@H]2c3c(c4ccccc4[nH]c3=O)OC(C)(C)[C@@H]12 |  |  | Activity (Toll-like receptor 4 [7]): inactive |
| COc1ccc([C@H]2[C@H]3c4c(c5ccccc5[nH]c4=O)OC(C)(C)[C@H]3[C@@H]2C(C)C)cc1CCl | 0.2 | 2 |  |
| COc1ccc([C@H]2[C@H]3c4c(c5ccccc5[nH]c4=O)OC(C)(C)[C@H]3[C@@H]2C(C)C)cc1Cl | 0.47 | 2 |  |
| COc1ccc([C@H]2[C@H]3c4c(c5ccccc5[nH]c4=O)OC(C)(C)[C@H]3[C@@H]2C(C)C)cc1OC | 0.9 | 1 |  |
| COc1ccc([C@H]2[C@H]3c4c(c5ccccc5n(C)c4=O)OC(C)(C)[C@H]3[C@@H]2C(C)C)cc1Cl | 0.53 | 3.1 |  |
| COc1ccc([C@H]2[C@H]3c4c(c5ccccc5n(C)c4=O)OC(C)(C)[C@H]3[C@@H]2C(C)C)cc1OC(C)=O | 0.31 | 3.1 |  |
| CC[C@@H]1[C@@H](c2cc(OC)c(OC)c(OC)c2)[C@H]2c3c(c4cc(C)ccc4n(C)c3=O)OC(C)(C)[C@@H]12 | 0.3 | 3.1 |  |
| COc1cc([C@H]2[C@H]3c4c(c5ccccc5n(C)c4=O)OC(C)(C)[C@H]3[C@@H]2C2CC2)cc(OC)c1OC | 0.81 | 0.79 |  |
| COc1cc([C@H]2[C@H]3c4c(c5ccccc5n(C)c4=O)OC(C)(C)[C@H]3[C@@H]2C2CCCC2)cc(OC)c1OC | 0.69 | 2.5 |  |
| COC(=O)[C@@H]1C(c2cc(OC)c(OC)c(OC)c2)[C@H]2c3c(c4ccccc4[nH]c3=O)OC(C)(C)C12 (single isomer, unassigned) |  |  | Activity (Toll-like receptor 4 [8]): inactive |
| COc1cc([C@H]2[C@H]3c4c(c5ccccc5[nH]c4=O)OC(C)(C)[C@H]3[C@@H]2C2CC2)cc(OC)c1OC | 0.82 | 0.63 |  |
| COc1ccc([C@H]2[C@H]3c4c(c5ccccc5[nH]c4=O)OC(C)(C)[C@H]3[C@@H]2C(C)C)cc1OCCO | 0.46 | 0.5 |  |
| COc1ccc2[nH]c(=O)c3c(c2c1)OC(C)(C)[C@H]1[C@H](C)[C@@H](c2cc(OC)c(OC)c(OC)c2)[C@@H]31 |  | > 10 |  |
| COc1ccc([C@@H]2[C@@H](C)[C@H]3[C@@H]2c2c(c4ccccc4[nH]c2=O)OC3(C)C)cc1OC | 0.69 | 3.1 |  |
| CCOC(=O)[C@@H]1[C@@H](c2ccc(Br)cc2)[C@H]2c3c(c4ccccc4[nH]c3=O)OC(C)(C)[C@@H]12 |  |  | Activity (Toll-like receptor 4 [9]): inactive |
| COc1ccc([C@H]2[C@H]3c4c(c5ccccc5[nH]c4=O)OC(C)(C)[C@H]3[C@@H]2C2CC2)cc1OCCCO | 0.88 | 0.79 |  |
| COc1cc([C@@H]2[C@@H](C)[C@H]3[C@@H]2c2c(c4ccccc4[nH]c2=O)OC3(C)C)ccc1O |  | > 10 |  |
